Measured values from PubChem BioAssay AID1963449 (Molecular Pharmacology Branch, DTP, NCI, 2024).
pIC50: −log10 of the molar value.

Test system: 596521-263-R-J1-PDC complex spheroid growth
Assay: Anticancer human tumor 596521-263-R-J1-PDC patient-derived soft tissue sarcoma cell line growth inhibition [Asc]
Conditions: for pIC50: curve of first compound; for viability, T/C: stronger effect = lower value
Description: Multicellular complex tumor spheroid response to apoptosis pathway targeting inhibitors Alrizomadlin, Pelcitoclax, and Dasminapant in combination with a variety of drugs and investigational agents in selected tumor cell lines
The MDM2 inhibitor alrizomadlin, the Bcl-2/Bcl-xL inhibitor pelcitoclax, and the IAPs inhibitor dasminapant were evaluated both individually and in combination with standard of care and investigational anticancer small molecules within a complex spheroid model of solid tumors. . Complex spheroids include a stromal component modeled by human endothelial cells (HUVEC) and fibroblasts modeled by human mesenchymal stem cells (MSCs). The concentration ranges selected for each drug and investigational agent were based upon clinically achievable concentrations if the clinical Cmax of the agent was known.
Compounds. The drugs and investigational agents: alrizomadlin (APG-115; NSC831270), pelcitoclax (APG-1252; NSC835773), dasminapant (APG-1387;NSC834197), TAK-243 (NSC785004), copanlisib (NSC809693), olaparib (NSC753686), talazoparib (NSC767125), cobimetinib (NSC 768068), eltanexor (KPT-8602, NSC 794443), abemaciclib (NSC 768073), sotorasib (NSC818433), adagrasib (NSC 831453), MRTX-1133 (NSC 836407), Iadademestat (ORY1001, NSC 806812), and RMC-4630 (NSC839698), were obtained from the NCI Developmental Therapeutics Program Chemical Repository. The FDA-approved anticancer drug set is available from the Developmental Therapeutics Program at https://dtp.cancer.gov/organization/dscb/obtaining/available plates.htm. […] The stock solutions were prepared in dimethyl sulfoxide (DMSO, Sigma-Aldrich, St. Louis, MO, cat. D2650) at 800-fold the tested concentration and stored at -70 degrees C prior to their use. All drugs and investigational agents were tested over a range starting from a high concentration at or near the clinical Cmax and decreasing in half-log increments. If the clinical Cmax for an agent had not been determined, the highest concentration tested was 10 microM.
The patient-derived cancer (PDC) cell lines include five colon adenocarcinomas: 186277-243-T-J2-PDC, 616215-338-R-J1-PDC, 439559-082-T-J2-PDC, 463943-066-T-J2-PDC, and 519858-162-T-J1-PDC; three pancreatic carcinomas: 323965-272-R-J2-PDC, 521955-158-R6-J3-PDC, and 521955-158-R2-J5-PDC; two uterine sarcomas: 327498-152-R-J2-PDC and 993429-296-R-J1-PDC; two rhabdomyosarcomas: 755483-174-R-J1-PDC and 772245-204-R-J1-PDC; two soft tissue sarcomas: 126254-015-R-J1-PDC and 494315-158-R-J1-PDC; two malignant fibrous histiocytomas: 317291-083-R-J1-PDC and 596521-263-R-J1-PDC; two breast carcinomas: 171881-019-R-J1-PDC and 885512-296-R-J2-PDC; and one ovarian carcinoma: 6556581-035-R-J-PDC were obtained from the NCI PDMR, (https://pdmr.cancer.gov). The established cell lines HSSY-2 synovial sarcoma (RRID:CVCL 8719), SYO-1 synovial sarcoma (RRID:CVCL_7146), MPNST malignant peripheral neural sheath tumor were obtained from the Sloan Kettering Institute. The following established cell lines were purchased from the American Type Culture Collection (ATCC, Manassas, VA), Sor the received from the NCI repository:, PANC-1 pancreatic carcinoma (CRL-1469, RRID:CVCL_0480), OVCAR-5 ovarian carcinoma (RRID:CVCL_1628), OVCAR-8 ovarian carcinoma (RRID:CVCL_1629), , MCF-7 breast carcinoma (CRL-12584, RRID:CVCL_0031), MDA-MB-231 breast carcinoma (CRL-12532, RRID:CVCL_0062), NCI-H1876 small cell lung carcinoma (CRL-5902, RRID:CVCL_1503), NCI-H510A small cell lung carcinoma (HTB-184, RRID:CVCL_1565), NCI-H1417 (CRL-5869, RRID:CVCL_1469), and NCI-H196 small cell lung carcinoma (CRL-5823, RRID:CVCL_1509). Dr. Peter Houghton (Greehey Children's Cancer Research Institute, University of Texas Health Science Center, San Antonio, TX) provided Rh-18 rhabdomyosarcoma (RRID:CVCL_1659). Pooled donor human umbilical vein endothelial cells (HUVEC, Lonza, cat. CC-2519) and human mesenchymal stem cells (hMSC, Lonza, cat. PT-2501) were purchased from Lonza (Walkersville, MD).
Cell Culture. […]
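Further: spheroids exposed to compounds for 7 days.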

## NC(=O)C(=Cn1cnc(-c2cc(C(F)(F)F)cc(C(F)(F)F)c2)n1)c1cncnc1 + CNC(C)C(=O)NC1CN(S(=O)(=O)c2cccc(S(=O)(=O)N3CCC4CCC(C(=O)NC(c5ccccc5)c5ccccc5)N4C(=O)C(NC(=O)C(C)NC)C3)c2)CCC2CCC(C(=O)NC(c3ccccc3)c3ccccc3)N2C1=O
Second compound 0.00316 µM
  pIC50: 7.69
Second compound 0.01 µM
  pIC50: 7.59
Second compound 0.0316 µM
  pIC50: 7.67
Second compound 0.1 µM
  pIC50: 7.74
Second compound 0.316 µM
  pIC50: 7.75
Second compound 1 µM
  pIC50: 7.90
Second compound 0.00316 µM, first compound 0.000949 µM
  viability, T/C: 99.8%
Second compound 0.00316 µM, first compound 0.003 µM
  viability, T/C: 94.3%
Second compound 0.00316 µM, first compound 0.00949 µM
  viability, T/C: 67.1%
Second compound 0.00316 µM, first compound 0.03 µM
  viability, T/C: 42.8%
Second compound 0.00316 µM, first compound 0.0949 µM
  viability, T/C: 16.1%
Second compound 0.00316 µM, first compound 0.3 µM
  viability, T/C: 10.4%
Second compound 0.01 µM, first compound 0.000949 µM
  viability, T/C: 101%
Second compound 0.01 µM, first compound 0.003 µM
  viability, T/C: 101%
Second compound 0.01 µM, first compound 0.00949 µM
  viability, T/C: 84.3%
Second compound 0.01 µM, first compound 0.03 µM
  viability, T/C: 44.9%
Second compound 0.01 µM, first compound 0.0949 µM
  viability, T/C: 14.8%
Second compound 0.01 µM, first compound 0.3 µM
  viability, T/C: 9.7%
Second compound 0.0316 µM, first compound 0.000949 µM
  viability, T/C: 102%
Second compound 0.0316 µM, first compound 0.003 µM
  viability, T/C: 93.7%
Second compound 0.0316 µM, first compound 0.00949 µM
  viability, T/C: 75.8%
Second compound 0.0316 µM, first compound 0.03 µM
  viability, T/C: 38.6%
Second compound 0.0316 µM, first compound 0.0949 µM
  viability, T/C: 18.7%
Second compound 0.0316 µM, first compound 0.3 µM
  viability, T/C: 10.5%
Second compound 0.1 µM, first compound 0.000949 µM
  viability, T/C: 93.6%
Second compound 0.1 µM, first compound 0.003 µM
  viability, T/C: 89.4%
Second compound 0.1 µM, first compound 0.00949 µM
  viability, T/C: 67.5%
Second compound 0.1 µM, first compound 0.03 µM
  viability, T/C: 35.6%
Second compound 0.1 µM, first compound 0.0949 µM
  viability, T/C: 14.6%
Second compound 0.1 µM, first compound 0.3 µM
  viability, T/C: 5.92%
Second compound 0.316 µM, first compound 0.000949 µM
  viability, T/C: 95.3%
Second compound 0.316 µM, first compound 0.003 µM
  viability, T/C: 76.8%
Second compound 0.316 µM, first compound 0.00949 µM
  viability, T/C: 71.3%
Second compound 0.316 µM, first compound 0.03 µM
  viability, T/C: 33.8%
Second compound 0.316 µM, first compound 0.0949 µM
  viability, T/C: 14.4%
Second compound 0.316 µM, first compound 0.3 µM
  viability, T/C: 6.61%
Second compound 1 µM, first compound 0.000949 µM
  viability, T/C: 85.8%
Second compound 1 µM, first compound 0.003 µM
  viability, T/C: 81.8%
Second compound 1 µM, first compound 0.00949 µM
  viability, T/C: 56.1%
Second compound 1 µM, first compound 0.03 µM
  viability, T/C: 27.3%
Second compound 1 µM, first compound 0.0949 µM
  viability, T/C: 11.2%
Second compound 1 µM, first compound 0.3 µM
  viability, T/C: 7.61%

## Cc1nc(N2CCC3(CC2)COC(C)C3N)c(CO)nc1Sc1ccnc(N)c1Cl (centres undefined) + CCN1C(C(=O)NC23CCC(C(=O)O)(CC2)CC3)C(c2cccc(Cl)c2F)C2(C(=O)Nc3cc(Cl)ccc32)C12CCCCC2
Second compound 0.00949 µM
  pIC50: < 5.52
Second compound 0.03 µM
  pIC50: < 5.52
Second compound 0.0949 µM
  pIC50: < 5.52
Second compound 0.3 µM
  pIC50: < 5.52
Second compound 0.949 µM
  pIC50: < 5.52
Second compound 3 µM
  pIC50: < 5.52
Second compound 0.00949 µM, first compound 0.00949 µM
  viability, T/C: 97.8%
Second compound 0.00949 µM, first compound 0.03 µM
  viability, T/C: 92.9%
Second compound 0.00949 µM, first compound 0.0949 µM
  viability, T/C: 87.7%
Second compound 0.00949 µM, first compound 0.3 µM
  viability, T/C: 84.5%
Second compound 0.00949 µM, first compound 0.949 µM
  viability, T/C: 78.6%
Second compound 0.00949 µM, first compound 3 µM
  viability, T/C: 67.8%
Second compound 0.03 µM, first compound 0.00949 µM
  viability, T/C: 92.5%
Second compound 0.03 µM, first compound 0.03 µM
  viability, T/C: 99.1%
Second compound 0.03 µM, first compound 0.0949 µM
  viability, T/C: 104%
Second compound 0.03 µM, first compound 0.3 µM
  viability, T/C: 88.3%
Second compound 0.03 µM, first compound 0.949 µM
  viability, T/C: 81.2%
Second compound 0.03 µM, first compound 3 µM
  viability, T/C: 66.2%
Second compound 0.0949 µM, first compound 0.00949 µM
  viability, T/C: 101%
Second compound 0.0949 µM, first compound 0.03 µM
  viability, T/C: 92.9%
Second compound 0.0949 µM, first compound 0.0949 µM
  viability, T/C: 87.4%
Second compound 0.0949 µM, first compound 0.3 µM
  viability, T/C: 91.3%
Second compound 0.0949 µM, first compound 0.949 µM
  viability, T/C: 80%
Second compound 0.0949 µM, first compound 3 µM
  viability, T/C: 69.3%
Second compound 0.3 µM, first compound 0.00949 µM
  viability, T/C: 101%
Second compound 0.3 µM, first compound 0.03 µM
  viability, T/C: 95%
Second compound 0.3 µM, first compound 0.0949 µM
  viability, T/C: 96.5%
Second compound 0.3 µM, first compound 0.3 µM
  viability, T/C: 91.5%
Second compound 0.3 µM, first compound 0.949 µM
  viability, T/C: 83.8%
Second compound 0.3 µM, first compound 3 µM
  viability, T/C: 69.3%
Second compound 0.949 µM, first compound 0.00949 µM
  viability, T/C: 90.8%
Second compound 0.949 µM, first compound 0.03 µM
  viability, T/C: 101%
Second compound 0.949 µM, first compound 0.0949 µM
  viability, T/C: 100%
Second compound 0.949 µM, first compound 0.3 µM
  viability, T/C: 91.5%
Second compound 0.949 µM, first compound 0.949 µM
  viability, T/C: 90.1%
Second compound 0.949 µM, first compound 3 µM
  viability, T/C: 73.8%
Second compound 3 µM, first compound 0.00949 µM
  viability, T/C: 82.6%
Second compound 3 µM, first compound 0.03 µM
  viability, T/C: 81.6%
Second compound 3 µM, first compound 0.0949 µM
  viability, T/C: 82.1%
Second compound 3 µM, first compound 0.3 µM
  viability, T/C: 86.1%
Second compound 3 µM, first compound 0.949 µM
  viability, T/C: 65.8%
Second compound 3 µM, first compound 3 µM
  viability, T/C: 58.2%
